Measurements as given in ChEMBL document CHEMBL1130052, “Substituted [(4-phenylpiperazinyl)-methyl]benzamides: selective dopamine D4 agonists” (J Med Chem, 1997).

Columns and labels:
D(3) dopamine receptor = D(3) dopamine receptor (Homo sapiens, UniProt P35462); assay: Binding affinity for human Dopamine receptor D3 expressed in CHO K1 transfected cells using [3H]spiperone as radioligand; type: cell-based
D(2) dopamine receptor = D(2) dopamine receptor (Homo sapiens, UniProt P14416); assay: Binding affinity for human Dopamine receptor D2 expressed in CHO K1 transfected cells using [3H]spiperone as radioligand; type: cell-based
D(4) dopamine receptor = biological target: T1, D(4) dopamine receptor (Homo sapiens, UniProt P21917); assay: biochemical
T1 sequence (P21917 whole entry): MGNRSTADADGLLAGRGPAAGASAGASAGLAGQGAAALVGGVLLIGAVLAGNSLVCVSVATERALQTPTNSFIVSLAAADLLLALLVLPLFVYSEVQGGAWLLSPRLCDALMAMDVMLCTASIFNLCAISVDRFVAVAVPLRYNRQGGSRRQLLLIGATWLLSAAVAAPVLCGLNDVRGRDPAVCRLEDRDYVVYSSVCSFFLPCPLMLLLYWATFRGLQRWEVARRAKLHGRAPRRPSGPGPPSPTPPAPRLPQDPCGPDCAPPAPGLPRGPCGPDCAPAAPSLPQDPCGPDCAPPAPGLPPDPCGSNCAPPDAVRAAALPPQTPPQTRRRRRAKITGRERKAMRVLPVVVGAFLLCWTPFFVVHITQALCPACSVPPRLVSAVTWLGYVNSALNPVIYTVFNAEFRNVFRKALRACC
Description: Binding affinity for human Dopamine receptor D4 expressed in CHO K1 transfected cells using [3H]spiperone as radioligand

[1] = biological target: 5-hydroxytryptamine receptor 2A (Homo sapiens, UniProt P28223); assay: Binding affinity at 5-hydroxytryptamine 2A receptor
[2] = biological target: T2, 5-hydroxytryptamine receptor 1A (Mus musculus, UniProt Q64264); assay: Binding affinity at 5-hydroxytryptamine 1A receptor
T2 sequence (Q64264 whole entry): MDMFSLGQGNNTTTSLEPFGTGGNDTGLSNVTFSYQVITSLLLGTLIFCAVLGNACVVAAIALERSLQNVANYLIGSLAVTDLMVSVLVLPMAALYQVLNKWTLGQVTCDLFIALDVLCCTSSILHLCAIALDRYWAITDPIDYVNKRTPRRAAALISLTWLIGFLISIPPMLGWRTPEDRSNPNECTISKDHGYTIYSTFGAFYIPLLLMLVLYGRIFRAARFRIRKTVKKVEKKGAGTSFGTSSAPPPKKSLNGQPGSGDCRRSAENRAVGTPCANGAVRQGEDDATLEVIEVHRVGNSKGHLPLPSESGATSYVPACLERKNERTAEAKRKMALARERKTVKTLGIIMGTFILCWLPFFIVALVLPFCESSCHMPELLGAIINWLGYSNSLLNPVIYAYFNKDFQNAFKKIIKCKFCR

Chain of D(2) dopamine receptor (P14416 whole entry): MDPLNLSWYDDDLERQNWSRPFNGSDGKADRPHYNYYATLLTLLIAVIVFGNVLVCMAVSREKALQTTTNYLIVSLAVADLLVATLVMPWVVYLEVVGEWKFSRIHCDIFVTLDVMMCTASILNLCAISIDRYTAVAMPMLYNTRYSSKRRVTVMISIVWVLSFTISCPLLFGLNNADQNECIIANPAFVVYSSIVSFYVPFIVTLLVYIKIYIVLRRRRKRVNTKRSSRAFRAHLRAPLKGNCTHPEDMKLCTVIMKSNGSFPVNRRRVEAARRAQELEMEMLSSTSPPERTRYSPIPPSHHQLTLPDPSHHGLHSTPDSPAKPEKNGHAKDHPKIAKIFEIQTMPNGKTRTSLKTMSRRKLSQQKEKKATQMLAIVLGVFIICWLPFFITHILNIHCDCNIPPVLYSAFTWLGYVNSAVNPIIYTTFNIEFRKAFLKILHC
Chain of D(3) dopamine receptor (P35462 whole entry): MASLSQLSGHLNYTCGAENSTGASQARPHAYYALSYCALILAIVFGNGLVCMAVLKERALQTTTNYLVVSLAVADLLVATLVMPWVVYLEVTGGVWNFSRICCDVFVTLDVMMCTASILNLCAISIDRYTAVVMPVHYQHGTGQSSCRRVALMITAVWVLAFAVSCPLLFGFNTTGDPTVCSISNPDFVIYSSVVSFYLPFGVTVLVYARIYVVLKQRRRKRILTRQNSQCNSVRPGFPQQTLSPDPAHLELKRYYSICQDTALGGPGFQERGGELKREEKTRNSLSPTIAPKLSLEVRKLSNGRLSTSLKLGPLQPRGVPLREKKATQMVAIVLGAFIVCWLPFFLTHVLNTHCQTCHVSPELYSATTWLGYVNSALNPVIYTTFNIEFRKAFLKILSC
Chain of 5-hydroxytryptamine receptor 2A (P28223 whole entry): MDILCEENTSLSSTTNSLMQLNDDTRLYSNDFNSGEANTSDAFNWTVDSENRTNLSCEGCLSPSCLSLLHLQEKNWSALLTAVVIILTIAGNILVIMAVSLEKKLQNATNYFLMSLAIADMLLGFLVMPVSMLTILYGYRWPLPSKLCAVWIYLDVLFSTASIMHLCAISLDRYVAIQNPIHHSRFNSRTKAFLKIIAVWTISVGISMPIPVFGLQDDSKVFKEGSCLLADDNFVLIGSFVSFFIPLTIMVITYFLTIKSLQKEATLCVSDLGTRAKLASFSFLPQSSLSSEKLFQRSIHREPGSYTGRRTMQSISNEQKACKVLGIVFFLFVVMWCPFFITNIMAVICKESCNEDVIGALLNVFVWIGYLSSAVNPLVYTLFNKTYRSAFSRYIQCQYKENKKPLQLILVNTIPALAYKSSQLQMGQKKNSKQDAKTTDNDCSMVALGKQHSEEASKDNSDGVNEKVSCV

| Ki (D(3) dopamine receptor) [nM] | Ki (D(2) dopamine receptor) [nM] | Ki (D(4) dopamine receptor) [nM] | Ki [1] [nM] | Ki [2] [nM] | Compound |
| --- | --- | --- | --- | --- | --- |
| > 3000 | 4180 | 27 |  |  | N#Cc1ccccc1N1CCN(CNC(=O)c2ccccc2)CC1 |
| 66 |  | 5.3 |  |  | O=C(NCN1CCN(c2ccccc2Cl)CC1)c1ccc(Cl)cc1 |
| 268 | 349 | 14 |  |  | COc1ccccc1N1CCN(CNC(=O)c2ccc(Cl)cc2)CC1 |
| 2810 | 3740 |  | 4010 | 385 | Cc1cccc(C(=O)NCN2CCN(c3ccccc3C#N)CC2)c1 [PD-168,077] |
| 364 | 2420 | 41 |  |  | O=C(NCN1CCN(c2ccccc2Cl)CC1)c1cccc(Cl)c1 |
| 1450 | 451 | 15 |  |  | COc1ccccc1N1CCN(CNC(=O)c2cccc(Cl)c2)CC1 |
| 464 | 1330 | 27 |  |  | Cc1cccc(C(=O)NCN2CCN(c3ccccc3Cl)CC2)c1 |

More lines, now with the values behind:

| Compound | Ki (D(3) dopamine receptor) [nM] | Ki (D(2) dopamine receptor) [nM] | Ki (D(4) dopamine receptor) [nM] | Ki [1] [nM] | Ki [2] [nM] |
| --- | --- | --- | --- | --- | --- |
| N#Cc1ccccc1N1CCN(CNC(=O)c2cccc(Cl)c2)CC1 | 2270 | 897 | 34 |  |  |
| N#Cc1ccccc1N1CCN(CNC(=O)c2ccc(Cl)cc2)CC1 | 600 | 929 | 5.5 |  |  |
| Cc1ccc(C(=O)NCN2CCN(c3ccccc3Cl)CC2)cc1 | 49 | 466 | 12 |  |  |
| COc1ccccc1N1CCN(CNC(=O)c2ccc(C)cc2)CC1 | 174 | 291 | 7.7 |  |  |
| COc1ccccc1N1CCN(CNC(=O)c2ccccc2)CC1 | 2470 |  | 22 |  |  |
| Cc1ccc(C(=O)NCN2CCN(c3ccccc3C#N)CC2)cc1 | 377 | 1150 | 6.5 |  |  |
| COc1ccccc1N1CCN(CNC(=O)c2cccc(C)c2)CC1 | 2480 | 835 | 6.7 |  |  |
| O=C(NCN1CCN(c2ccccc2Cl)CC1)c1ccccc1 | 177 | 1500 | 32 |  |  |
